Earlier results in patent publication US11576871B2 (The Regents of the University of California, priority 2016, dated 2023).

What was measured:
[1] = system: intracellular cystine in circulating white blood cells
[2] = children with cystinosis

| SMILES | time to observed decrease in leukocyte cystine ([1]; delivery of cysteamine to the small intestine (WO 2007/089670)) | depletion of intracellular cystine ([1]; taken regularly, measured in circulating white blood cells) | reduction of urine volume (and liquid consumption) [2] |
| --- | --- | --- | --- |
| NCCS [cysteamine, Cysteamine] | within an hour | up to 90% |  |
| COc1ccc2c(c1)c(CC(=O)O)c(C)n2C(=O)c1ccc(Cl)cc1 [indomethacin] |  |  | about 30% |
